Test results from the SangsterLogP compilation.

Test: not given
Details: not given

Compound | logP
CCc1c(C)[nH]c2c1C(=O)C1CN(C)CCC1C2 (stereo not drawn) | 1.78
CNc1nc(Cl)c(SC)c(N2CCN(C)CC2)n1 | 2.99
c1ccc(Cn2cnnn2)cc1 | 1.36
COc1cc(Cc2cnc(N)nc2N)cc(Br)c1OC | 2.23
O=C(O)Cc1c[nH]c2ccc(O)cc12 | 1.17
CC(=O)c1c(C)n(C)c2ccccc12 | 2.03

The next lines start with the values.

logP | Compound
5.78 | C1=Cc2ccc3c4c(ccc(c24)C1)-c1ccccc1-3
2.98 | Cc1cc2c(s1)Nc1ccc(F)cc1N=C2N1CCN(C)CC1
-0.21 | N=C1C=CC(=C(c2ccc(N)cc2)c2ccc(N)cc2)C=C1
3.8 | CSc1ccc2c(c1)C(N1CCN(CCO)CC1)CC2c1ccc(F)cc1 (stereo not drawn)
4.18 | O=c1[nH]c2ccccc2n1C1CCN(CCOc2ccccc2)CC1
2.88 | COc1ccc(S(N)(=O)=O)cc1C(=O)NC1CC2CCCC1N2Cc1ccccc1 (stereo not drawn)
4.09 | OCCC1CCN(CC/C=C2\c3ccc(F)cc3Sc3ccc(C(F)(F)F)cc32)CC1
1.86 | O=C(O)Cc1nn(Cc2nc3cc(F)ccc3s2)c(=O)c2ccccc12
2.29 | CCN1CCCC1CNC(=O)c1cc(N(C)S(C)(=O)=O)ccc1OC (stereo not drawn)
2.62 | CN1C(C(=O)Nc2ccccn2)=C(O)c2sc(Cl)cc2S1(=O)=O
4.29 | c1ccc(NCCCOc2cccc(CN3CCCCC3)c2)nc1
2.62 | CCN1CCCC1CNC(=O)c1cc(N(C)S(C)(=O)=O)c(Cl)cc1OC (stereo not drawn)
3.57 | Cc1ccc2c(c1)C(N1CCN(CCO)CC1)CC2c1ccc(F)cc1 (stereo not drawn)
3.3 | OCCN1CCN(C2CC(c3ccc(F)cc3)c3ccc(F)cc32)CC1 (stereo not drawn)
4.47 | OCCN1CCN(CCCC2c3ccc(F)cc3Sc3ccc(C(F)(F)F)cc32)CC1 (stereo not drawn)

Test: method code SF-AS, from Hansch, C., Leo, A., & Hoekman, D. (1995). Exploring QSAR: hydrophobic, electronic, and steric constants (Vol. 2). Washington, DC: American Chemical Society.
Details: not given

Compound | logP
CCc1cccc2c1OCCOCCOCCOCCOCCO2 | 0.98
CC(=O)c1ccc2c(c1)OCCOCCOCCOCCOCCO2 | -0.05

More lines, now with the values ahead:

logP | Compound
2.21 | c1ccc2c(c1)OCCOCCOc1ccccc1OCCO2
3.32 | CC(C)(C)c1ccc2c(c1)OCCOCCOCCOCCOc1cc(C(C)(C)C)ccc1OCCOCCOCCOCCO2

Same assay, conditions: pH 2.1

logD | Compound
0.21 | O=C(O)C[N+]1([O-])CCN(C(=O)Cn2c(=O)sc3ccc(Cl)cc32)CC1

Same assay, conditions: pH 6.4

logD | Compound
2.74 | CC1=NN(CCOc2ccc3ccccc3c2)C(=O)C1

Same assay, conditions: pH 7.2

logD | Compound
4.2 | N#CC(C#N)=NNc1ccccc1C(F)(F)F
2.5 | Cc1ccc(NN=C(C#N)C#N)c([N+](=O)[O-])c1
2.38 | Cc1ccccc1NN=C(C#N)C#N

Compound | logD
N#CC(C#N)=NNc1ccccc1Br | 3.11
N#CC(C#N)=NNc1cccc(Cl)c1Cl | 3.85

Same assay, conditions: pH 7.4

Compound | logD
O=C(NP(=O)(N1CC1)N1CC1)c1ccc(Br)cc1 | 0.97
O=C(NP(=O)(N1CC1)N1CC1)c1ccccc1I | 1.05
O=C(Cn1c(=O)sc2ccc(Cl)cc21)N1CC[N+]([O-])(CCO)CC1 | 0.05

Test: method code SF-HPLC, from Hansch, C., Leo, A., & Hoekman, D. (1995). Exploring QSAR: hydrophobic, electronic, and steric constants (Vol. 2). Washington, DC: American Chemical Society.
Details: pH 7.4

logD | Compound
2.01 | COc1ccc2cc(C(C)C(=O)OC(O)C(=O)N(C)CCO)ccc2c1 (stereo not drawn)

Test: method code G, from Hansch, C., Leo, A., & Hoekman, D. (1995). Exploring QSAR: hydrophobic, electronic, and steric constants (Vol. 2). Washington, DC: American Chemical Society.
Details: not given

Compound | logP
CCC(=O)C(Cc1ccc(C)cc1)S(=O)(=O)c1ccccc1 (stereo not drawn) | 2.7
CCC(=O)C(Cc1ccc(OC)cc1)S(=O)(=O)c1ccc(C)cc1 (stereo not drawn) | 2.47
CCC(=O)C(Cc1ccccc1)S(=O)(=O)c1ccccc1 (stereo not drawn) | 1.82
CCC(=O)C(Cc1ccccc1)S(=O)(=O)c1ccc(C)cc1 (stereo not drawn) | 2.45

More lines, now with the values ahead:

logP | Compound
3.43 | CCC(=O)C(Cc1ccc(Cl)cc1)S(=O)(=O)c1ccc(C)cc1 (stereo not drawn)
2.69 | CCC(=O)C(Cc1ccc(Cl)cc1)S(=O)(=O)c1ccccc1 (stereo not drawn)
3.3 | CCC(=O)C(Cc1ccc(C)cc1)S(=O)(=O)c1ccc(C)cc1 (stereo not drawn)
